PMC4822888, “Subtype-Selective Small Molecule Inhibitors Reveal a Fundamental Role for Nav1.7 in Nociceptor Electrogenesis, Axonal Conduction and Presynaptic Release” (PLoS ONE, 2016)

Columns and labels:
[1] = target: Histamine H1 receptor (Homo sapiens, UniProt P35367); assay: Off target activity panel; type: binding; details: read-out: Inhibition at test concentration (%)
[2] = target: Cannabinoid receptor 1 (Homo sapiens, UniProt P21554); assay: Off target activity panel; type: binding; details: read-out: Inhibition at test concentration (%)
[3] = target: Serotonin 5-HT7 (Homo sapiens, UniProt P34969); assay: Off target activity panel; type: binding; details: read-out: Inhibition at test concentration (%)
[4] = target: Muscarinic M2 receptor (Homo sapiens, UniProt P08172); assay: Off target activity panel; type: binding; details: read-out: Inhibition at test concentration (%)
[5] = target: PDE2A (Homo sapiens, UniProt O00408); assay: Off target activity panel; type: biochemical; details: read-out: Inhibition at test concentration (%)
[6] = target: Delta opioid receptor (Homo sapiens, UniProt P41143); assay: Off target activity panel; type: binding; details: read-out: Inhibition at test concentration (%)
[7] = target: Dopamine D3 receptor (Homo sapiens, UniProt P35462); assay: Off target activity panel; type: binding; details: read-out: Inhibition at test concentration (%)
[8] = target: Muscarinic M3 receptor (Homo sapiens, UniProt P20309); assay: Off target activity panel; type: binding; details: read-out: Inhibition at test concentration (%)
[9] = tested on: NMDA receptor (phencyclidine site); assay: Off target activity panel; type: binding; details: 10 µM
[10] = tested on: PDE4 rolipram binding; assay: Off target activity panel; details: 10 µM
[11] = target: Adenosine A3 receptor (Homo sapiens, UniProt P0DMS8); assay: Off target activity panel; type: binding; details: read-out: Inhibition at test concentration (%)
[12] = tested on: Sigma receptor; assay: Off target activity panel; type: binding; details: 10 µM
[13] = tested on: Nictotinic acetylcholine receptor; assay: Off target activity panel; type: binding; details: 10 µM
[14] = target: Dopamine D4 receptor (Homo sapiens, UniProt P21917); assay: Off target activity panel; type: binding; details: read-out: Inhibition at test concentration (%)
[15] = target: Beta 1 adrenergic receptor (Homo sapiens, UniProt P08588); assay: Off target activity panel; type: binding; details: read-out: Inhibition at test concentration (%)
[16] = target: Monoamine oxidase A (Homo sapiens, UniProt P21397); assay: Off target activity panel; type: biochemical; details: read-out: Inhibition at test concentration (%)
[17] = tested on: Adrenergic alpha 1 receptor; assay: Off target activity panel; type: binding; details: 10 µM
[18] = tested on: human DRG neurons (hDRG neurons); assay: Voltage clamp of TTX-S current in human DRG neurons; type: cell-based
[19] = target: Adrenergic alpha 2B receptor (Homo sapiens, UniProt P18089); assay: Off target activity panel; type: binding; details: read-out: Inhibition at test concentration (%)
[20] = tested on: AMPA receptor; assay: Off target activity panel; type: binding; details: 10 µM
[21] = target: Mu opiod receptor (Homo sapiens, UniProt P35372); assay: Off target activity panel; type: binding; details: read-out: Inhibition at test concentration (%)
[22] = target: Dopamine transporter (Homo sapiens, UniProt Q01959); assay: Off target activity panel; type: binding; details: read-out: Inhibition at test concentration (%)
[23] = target: Serotonin 5-HT transporter (Homo sapiens, UniProt P31645); assay: Off target activity panel; type: binding; details: read-out: Inhibition at test concentration (%)
[24] = tested on: GABAA channel; assay: Off target activity panel; type: binding; details: 10 µM
[25] = target: FLT-1 kinase (Homo sapiens, UniProt P17948); assay: Off target activity panel; type: biochemical; details: read-out: Inhibition at test concentration (%)
[26] = target: cynNav1.7 (Macaca fascicularis, UniProt A0A2K5WIF4); assay: cell-based; type: cell-based, cynomologus macaque
[27] = target: Serotonin 5-HT1A (Homo sapiens, UniProt P08908); assay: Off target activity panel; type: binding; details: read-out: Inhibition at test concentration (%)
[28] = tested on: GABA transporter; assay: Off target activity panel; type: binding; details: 10 µM
[29] = target: Matrix metalloprotease 9 (Homo sapiens, UniProt P14780); assay: Off target activity panel; type: biochemical; details: read-out: Inhibition at test concentration (%)
[30] = target: Choline transporter (Homo sapiens, UniProt Q9GZV3); assay: Off target activity panel; type: binding; details: read-out: Inhibition at test concentration (%)
[31] = target: Urotensin receptor (Homo sapiens, UniProt Q9UKP6); assay: Off target activity panel; type: binding; details: read-out: Inhibition at test concentration (%)
[32] = target: Histamine H2 receptor (Homo sapiens, UniProt P25021); assay: Off target activity panel; type: binding; details: read-out: Inhibition at test concentration (%)
[33] = target: Acetylcholinesterase (Homo sapiens, UniProt P22303); assay: Off target activity panel; type: biochemical; details: read-out: Inhibition at test concentration (%)
[34] = target: Adenosine A1 receptor (Homo sapiens, UniProt P30542); assay: Off target activity panel; type: binding; details: read-out: Inhibition at test concentration (%)
[35] = target: Dopamine D1 receptor (Homo sapiens, UniProt P21728); assay: Off target activity panel; type: binding; details: read-out: Inhibition at test concentration (%)
[36] = Off target activity panel; type: binding; details: read-out: Inhibition at test concentration (%)
[37] = target: Melanin-concentrating hormone receptor 1 (Homo sapiens, UniProt Q99705); assay: Off target activity panel; type: binding; details: read-out: Inhibition at test concentration (%)
[38] = target: Serotinin 5-HT2B (Homo sapiens, UniProt P41595); assay: Off target activity panel; type: binding; details: read-out: Inhibition at test concentration (%)
[39] = target: PDE3B (Homo sapiens, UniProt Q13370); assay: Off target activity panel; type: biochemical; details: read-out: Inhibition at test concentration (%)
[40] = target: Kappa opioid receptor (Homo sapiens, UniProt P41145); assay: Off target activity panel; type: binding
[41] = target: Cholycystokinin 2 (CCKB) receptor (Homo sapiens, UniProt P32239); assay: Off target activity panel; type: binding; details: read-out: Inhibition at test concentration (%)
[42] = target: dogNav1.7 (Canis lupus familiaris, UniProt A0A8I3P4Z8); assay: cell-based; type: cell-based, dog
[43] = target: Adrenergic alpha 2A receptor (Homo sapiens, UniProt P08913); assay: Off target activity panel; type: binding; details: read-out: Inhibition at test concentration (%)
[44] = target: Neurokinin NK1 receptor (Homo sapiens, UniProt P25103); assay: Off target activity panel; type: binding; details: read-out: Inhibition at test concentration (%)

For `Nc1[nH]ncc1-c1cc(Cl)ccc1Oc1cc(F)c(S(=O)(=O)Nc2cscn2)cc1Cl` [PF-05089771, 4-[2-(5-amino-1H-pyrazol-4-yl)-4-chlorophenoxy]-5-chloro-2-fluoro-N-(1,3-thiazol-4-yl)benzenesulfonamide], the inhibition at 10 µM [1] was 12%, the inhibition at 10 µM [2] was 0% and the inhibition at 10 µM [3] was -7%. For the same compound, the inhibition at 10 µM [4] was 3%, the inhibition at 10 µM [5] was 9% and the inhibition at 10 µM [6] was 15%. For the same compound, the inhibition at 10 µM [7] was 16%, the inhibition at 10 µM [8] was 16% and the “Inhibition at test concentration (%)” value [9] was -3%. The “Inhibition at test concentration (%)” value [10] was 10%, the inhibition at 10 µM [11] was 4% and the “Inhibition at test concentration (%)” value [12] was -8%. For the same compound, the “Inhibition at test concentration (%)” value [13] was -7%, the inhibition at 10 µM [14] was 5% and the inhibition at 10 µM [15] was 12%. For the same compound, the inhibition at 10 µM [16] was -13%, the “Inhibition at test concentration (%)” value [17] was -5% and the “Block of TTX-S current” value ([18]; 30 nM, in presence of A-803467) was 75.5 ± 10.5%. For the same compound, the “Block of TTX-S current” value ([18]; 100 nM) was “complete block”, the IC50 ([18]; DRG neuron, read-out: IC50 for TTX-S current block) was 8.4 ± 1.2 nM and the inhibition at 10 µM [19] was 24%. The “Inhibition at test concentration (%)” value [20] was -13%, the inhibition at 10 µM [21] was 7% and the inhibition at 10 µM [22] was 18%. The inhibition at 10 µM [23] was 0%, the “Inhibition at test concentration (%)” value [24] was 41% and the inhibition at 10 µM [25] was 14%. For the same compound, the IC50 [26] was 12 nM, the Slope ([26]; cynNav1.7) was 1.1 and the inhibition at 10 µM [27] was 13%. For the same compound, the “Inhibition at test concentration (%)” value [28] was 1%, the inhibition at 10 µM [29] was -3% and the inhibition at 10 µM [30] was 18%. It also gave an inhibition at 10 µM [31] of 32%, an inhibition at 10 µM [32] of -3% and an inhibition at 10 µM [33] of 17%. For the same compound, the inhibition at 10 µM [34] was 15%, the inhibition at 10 µM [35] was 0% and the inhibition at 10 µM [36] was 64%. It also gave an inhibition at 10 µM [37] of -7%, an inhibition at 10 µM [38] of -6% and an inhibition at 10 µM [39] of 4%. For the same compound, the inhibition at 10 µM ([40]; 10 µM, read-out: Inhibition at test concentration (%)) was 86%, the Ki ([40]; Kappa opioid receptor) was 390 nM and the inhibition at 10 µM [41] was 13%. It also gave an IC50 [42] of 13 nM, a Slope ([42]; dogNav1.7) of 0.9 and an inhibition at 10 µM [43] of 10%. For the same compound, the inhibition at 10 µM [44] was 5%.
